The subject of data set [1] is HeLa. The experiment in a line: Induction of apoptosis in human HeLa cells assessed as green signal at 10 uM relative to control. It is filed as functional.
A short description of data set [2]: Drug uptake in human HeLa cells assessed as red signals at 10 uM incubated for 3 hrs by fluorescence microscopy. Type of data set: ADME, cell-based.
A short description of data set [3]: Proteolytic stability assessed as proteinase K (unknown origin)-mediated drug degradation measured for 15 mins by Tricine-SDS-PAGE analysis. The note with it: read-out: Drug degradation. It is filed as ADME.

As for `CC[C@H](C)[C@@H]1NC(=O)[C@@H](NC(=O)[C@H](CCCNC(=N)N)NC(=O)[C@H](CC(C)C)NC(=O)[C@H](CCC(=O)O)NC(=O)[C@H](CCC(N)=O)NC(=O)[C@H](C)NC(=O)[C@@H](NC(=O)[C@H](Cc2c[nH]c3ccccc23)NC(=O)[C@@H](NC(=O)[C@@H](N)CCC(=O)O)[C@@H](C)CC)[C@@H](C)CC)CSCc2ccccc2CSC[C@H](C(=O)N[C@@H](Cc2ccccc2)C(=O)N[C@@H](CC(N)=O)C(=O)N[C@@H](C)C(=O)N[C@@H](Cc2ccc(O)cc2)C(=O)N[C@@H](Cc2ccc(O)cc2)C(=O)N[C@@H](C)C(=O)N[C@@H](CCCNC(=N)N)C(=O)O)NC(=O)[C@H](CC(=O)O)NC(=O)CNC1=O`, in data set [1], the Activity was found to be 52%.
In the case of `CC[C@H](C)[C@H](NC(=O)[C@H](Cc1c[nH]c2ccccc12)NC(=O)[C@@H](NC(=O)[C@H](CCC(=O)O)NC(=O)[C@H](CCCNC(=N)N)NC(=O)[C@H](CCCNC(=N)N)NC(=O)[C@H](CCCNC(=N)N)NC(=O)[C@H](CCC(N)=O)NC(=O)[C@H](CCCNC(=N)N)NC(=O)[C@H](CCCNC(=N)N)NC(=O)[C@H](CCCCN)NC(=O)[C@H](CCCCN)NC(=O)[C@@H](N)CCCNC(=N)N)[C@@H](C)CC)C(=O)N[C@@H](C)C(=O)N[C@@H](CCC(N)=O)C(=O)N[C@@H](CCC(=O)O)C(=O)N[C@@H](CC(C)C)C(=O)N[C@@H](CCCNC(=N)N)C(=O)N[C@@H]1CSCc2ccccc2CSC[C@@H](C(=O)N[C@@H](Cc2ccccc2)C(=O)N[C@@H](CC(N)=O)C(=O)N[C@@H](C)C(=O)N[C@@H](Cc2ccc(O)cc2)C(=O)N[C@@H](Cc2ccc(O)cc2)C(=O)N[C@@H](C)C(=O)N[C@@H](CCCNC(=N)N)C(=O)O)NC(=O)[C@H](CC(=O)O)NC(=O)CNC(=O)[C@H]([C@@H](C)CC)NC1=O`, in data set [1], the Activity is reported as 14%.
The same measure, in the same setting: next, `CC[C@H](C)[C@H](NC(=O)[C@H](Cc1c[nH]c2ccccc12)NC(=O)[C@@H](NC(=O)[C@H](CCC(=O)O)NC(=O)[C@H](CCCNC(=N)N)NC(=O)[C@H](CCCNC(=N)N)NC(=O)[C@H](CCCNC(=N)N)NC(=O)[C@H](CCC(N)=O)NC(=O)[C@H](CCCNC(=N)N)NC(=O)[C@H](CCCNC(=N)N)NC(=O)[C@H](CCCCN)NC(=O)[C@H](CCCCN)NC(=O)[C@@H](N)CCCNC(=N)N)[C@@H](C)CC)C(=O)N[C@@H](C)C(=O)N[C@@H](CCC(N)=O)C(=O)N[C@@H](CCC(=O)O)C(=O)N[C@@H](CC(C)C)C(=O)N[C@@H](CCCNC(=N)N)C(=O)N[C@@H]1CSCc2ccccc2CSC[C@H](C(=O)N[C@@H](Cc2ccccc2)C(=O)N[C@@H](CC(N)=O)C(=O)N[C@@H](C)C(=O)N[C@@H](Cc2ccc(O)cc2)C(=O)N[C@@H](Cc2ccc(O)cc2)C(=O)N[C@@H](C)C(=O)N[C@@H](CCCNC(=N)N)C(=O)O)NC(=O)[C@H](CC(=O)O)NC(=O)CNC(=O)[C@H]([C@@H](C)CC)NC1=O`: 9.3%.
Take `CC[C@H](C)[C@@H]1NC(=O)[C@@H](NC(=O)[C@H](CCCNC(=N)N)NC(=O)[C@H](CC(C)C)NC(=O)[C@H](CCC(=O)O)NC(=O)[C@H](CCC(N)=O)NC(=O)[C@H](C)NC(=O)[C@@H](NC(=O)[C@H](Cc2c[nH]c3ccccc23)NC(=O)[C@@H](NC(=O)[C@@H](N)CCC(=O)O)[C@@H](C)CC)[C@@H](C)CC)CSCc2ccccc2CSC[C@@H](C(=O)N[C@@H](Cc2ccccc2)C(=O)N[C@@H](CC(N)=O)C(=O)N[C@@H](C)C(=O)N[C@@H](Cc2ccc(O)cc2)C(=O)N[C@@H](Cc2ccc(O)cc2)C(=O)N[C@@H](C)C(=O)N[C@@H](CCCNC(=N)N)C(=O)O)NC(=O)[C@H](CC(=O)O)NC(=O)CNC1=O`: the Drug uptake result in data set [2] is recorded as “Not_active”.
In the case of H-RKKRRQRRREIWIAQELRRIGDEFNAYYAR-OH, the Drug uptake result in data set [2] is on record as “Active”. Also, in data set [1], the Activity is 37%. Further, the metabolised at 0.25 h in data set [3] worked out at 95%.
As to `CC[C@H](C)[C@@H]1NC(=O)[C@@H](NC(=O)[C@H](CCCNC(=N)N)NC(=O)[C@H](CC(C)C)NC(=O)[C@H](CCC(=O)O)NC(=O)[C@H](CCC(N)=O)NC(=O)[C@H](C)NC(=O)[C@@H](NC(=O)[C@H](Cc2c[nH]c3ccccc23)NC(=O)[C@@H](NC(=O)[C@H](CCC(=O)O)NC(=O)[C@H](CCCNC(=N)N)NC(=O)[C@H](CCCNC(=N)N)NC(=O)[C@H](CCCNC(=N)N)NC(=O)[C@H](CCC(N)=O)NC(=O)[C@H](CCCNC(=N)N)NC(=O)[C@H](CCCNC(=N)N)NC(=O)[C@H](CCCCN)NC(=O)[C@H](CCCCN)NC(=O)[C@@H](N)CCCNC(=N)N)[C@@H](C)CC)[C@@H](C)CC)CSCc2ccccc2CSC[C@@H](C(=O)N[C@@H](Cc2ccccc2)C(=O)N[C@@H](CC(N)=O)C(=O)N[C@@H](C)C(=O)N[C@@H](Cc2ccc(O)cc2)C(=O)N[C@@H](Cc2ccc(O)cc2)C(=O)N[C@@H](C)C(=O)N[C@@H](CCCNC(=N)N)C(=O)O)NC(=O)[C@H](CC(=O)O)NC(=O)CNC1=O`, in data set [2], the Drug uptake entry is recorded as “Active”. The Activity in data set [1] worked out at 94%. For the same compound, the metabolised at 0.25 h in data set [3] was found to be 68%.

Values taken from ChEMBL document CHEMBL6092123, “Configuration of two cysteine residues in a ring within a stapled Bim peptide affects the secondary structure and apoptotic activity” (Bioorg Med Chem Lett, 2024).
